Assay [1] has as its system S. mutans UA159 (ATCC 700610). Kind of assay: Minimal inhibition concentration (MIC) determination, S. mutans UA159. It is filed as cell-based. To be noted: Streptococcus mutans, ATCC700610, BHI medium, 48 h, A600. How it is done: Minimal inhibition concentration (MIC) determination . S.mutans UA159 (ATCC 700610) and 20 clinical S.mutans strains were used. S.mutans UA159 was purchased from Shanghai Biofeng Biotechnology Co., LTD. These bacteria grown in brain heart infusion broth (BHI, Beijing Land Bridge, China) at 37 °C under anaerobic conditions.
Due to bacteria incubation under the condition of excessive acid for a long time will affect its vitality, therefore, pH 5.5 was choose as acidic condition for the MIC determination. Peptides and CHX were dissolved in BHI medium of different pHs (pH 5.5 and 7.0) using serial dilutions to obtain different diluted solutions. 2 µL of bacteria (1×10^7 CFU (colony forming units) in the logarithmic phase were added into each well of 96-well plates containing 200 µL different diluted solutions. Note that […]
the aggregate behavior of peptides. In order to avoid interfering with the MIC test, it is important to set up the control wells which only contain different concentrations of peptides in BHI medium of different pHs. The absorbance at 600 nm was detected with a microplate reader (Multiskan Spectrum, BioTek Inc., USA) after 48 h. The inhibition rate of drugs on bacteria was calculated based on the absorbance […]
The SYTO 9 / PI double staining and scanning electron microscopy (SEM) were also performed to evaluate the bacterial killing and bacterial membrane disruption. […]

The subject of assay [2] is S. mutans UA159 biofilms on sHA. Nature of the assay: Biofilm model on saliva-coated hydroxyapatite (sHA). It is filed as cell-based, Streptococcus mutans. To be noted: 55 µM; pH 4.5; 10 min, total of 5 days; n = 3. An excerpt:
Treatment and quantitative analysis of b iofilm model on sHA. S.mutans biofilms also formed on sHA blocks (surface area=1 ± 0.2 cm2) in 24-well plates. According to the literature10, before the experiment, hydroxyapatite (diameter, 1.25 cm; Kunshan Chinese technology new materials CO, LTD) was coated with filter-sterilized clarified human whole saliva. The biofilm formation, treatment regimen, and quantitative analysis were roughly similar to the biofilms formed on circular glass slides as described above. The differences are that the biofilms should be treated after 24 hours of formation and biofilms were treated every other day for a total of 5 days. In addition, after treatment for 5 days, the sHA blocks were washed with PBS (pH 7.0) and then fixed with 2.5 % glutaraldehyde for 10 min. After being washed another 3 times with PBS (pH 7.0) to remove the remaining glutaraldehyde, the sHA blocks were stained using 0.5% crystal violet for 20 min. The fully washed sHA blocks were observedunder a light microscope (Insein Li Fung1080P 60FPS, China).
Treatment and quantitative analysis of human derived ex vivo biofilm s. […] The total cultivable bacteria for ex vivo biofilm formation was measured to ensure the same density of added bacteria (~2× 108). […] The quantitative analysis was measured by counting the CFU of alive bacteria with agar plating after incubation for 48 h at 37 °C. […]

Structures are written as SMILES. ≈ marks a conversion by molar mass, not a printed value.

Consider `[H]/N=C(\N/C(=N/[H])NCCCCCCNC(=N)NC(=N)Nc1ccc(Cl)cc1)Nc1ccc(Cl)cc1` [CHX, chlorhexidine], for which the minimal inhibitory concentration (MIC) turned out to be 0.5 µM (≈ 0.253 µg/mL) in assay [1] (pH 5.5) and 1 µM (≈ 0.505 µg/mL) in assay [1] (pH 7.0). In addition, the “biofilm on sHA, viable cell count (CFU)” value in assay [2] is given as “apparent antibiofilm efficacy”.

Source of the values: article PMC9254247, “Dual-sensitive antibacterial peptide nanoparticles prevent dental caries” (Theranostics, 2022).
